# From US6589967B1, “Oxime O-ether compounds and fungicides for agricultural and horticultural use” (Nippon Soda Co. Ltd., priority 1999, dated 2003)
# Test system: snap bean gray mold fungus (Botrytis cinerea)
# Assay: Test on Kidney Bean Gray Mold Control
# Format: in vivo
# Conditions: 50 ppm active ingredient, cut Kidney bean flowers (Nagauzura) dipped, spores sprayed, placed on detached leaves, 7 days at 20° C., high humidity
# Experimental: Now, explanation is made on how the compounds according to the present invention are effective as an active ingredient of a fungicide for controlling various plant diseases with reference to Test examples described later. In the Test Examples, the control efficacy is determined by visually checking the infested state of the test plants at the time of observation, namely, checking the damage to the host plants and the developing state of the disease-causing fungus appeared on leaves, stems, etc. of the test plants, compared to the control test plants which are healthy. Flowers of Kidney bean (variety; Nagauzura) grown in a flat vessel for culturing seedlings are cut, and the cut flowers were dipped into a solution prepared by diluting the emulsifiable concentrate prepared for the compound of the present invention at a concentration of 50 ppm based on the active ingredient. After the dipping, the flowers were dried at a room temperature. Then, spore solution of snap bean gray mold fungus (Botrytis cinerea) was sprayed to the flowers. The flowers sprayed with spores of the gray mold fungus were placed on the leaves which were detached from healthy Kidney bean plants, and those leaves were placed in a room being maintained at 20° C. and high humidity with repeated lighting of 12 hours intervals, and the Kidney bean leaves were incubated in the room for 7 days. Then, the infestation degree by the fungus on the leaves was checked in comparison to the control healthy leaves to determine the control efficacy. […] Note that the compound numbers in the following correspond to the same compound numbers in the Table 1. Compound Nos. 1, 3, 6, 7, 11, 12, 13, 14, 15, 18, 20, 21, 22, 23, 25, 26, 27, 29, 36, 48, 49, 192, 194, 195, 196, 198, 201, 203, 204, 207, 208, 209, 210, 213, 216, 219, 220, 222, 223, 224, 225, 227, 228, 229, 231, 233, 234, 235, 236, 237, 239, 240, 242
row,SMILES,control performance (control efficacy)
1,COc1cccc(C)c1CON=C(C)c1cc(C)ccn1 [compound 36],excellent control performance
2,COc1cccc(OC)c1CON=Cc1cccc(C)n1 [compound 228],excellent control performance
3,COCc1cccc(OC)c1CON=Cc1cc(C)cc(C)n1 [compound 237],excellent control performance
4,"COc1cccc(Br)c1CON=Cc1cc(C)cc(C)n1 [Compound No. 234, 4,6-Dimethyl-2-pyridinecarboxyaldehyde O-[(2-Methoxy-6-bromophenyl)methyl]oxime]",excellent control performance
5,COCOc1cc(OC)ccc1CON=C(C)c1cc(C)cc(C)n1 [compound 6],excellent control performance
6,COc1cccc(OC)c1CON=Cc1cc(Br)cc(C)n1 [compound 229],excellent control performance
7,"COc1cccc(OC)c1CON=Cc1cc(Cl)cc(C)n1 [Compound No. 219, 4-Chloro-6-methyl-2-pyridinecarboxyaldehyde O-[(2,6-Dimethoxyphenyl)methyl] Oxime]",excellent control performance
8,COc1cccc(Cl)c1CON=C(C)c1cc(C)cc(C)n1 [compound 29],excellent control performance
9,COCOc1ccc(OC)cc1CON=C(C)c1cc(C)cc(C)n1 [compound 12],excellent control performance
10,"CNc1cccc(OC)c1CON=Cc1cc(C)cc(C)n1 [Compound No. 223, 4,6-Dimethyl-2-pyridinecarboxyaldehyde O-[(2-Methoxy-6-methylaminophenyl)methyl] Oxime]",excellent control performance
11,COc1ccc(OC)c(CON=C(C)c2cc(C)cc(C)n2)c1 [Compound No. 22],excellent control performance
12,COc1ccc(Cl)c(OC)c1CON=C(C)c1cc(C)cc(C)n1 [compound 3],excellent control performance
13,COc1cc(C)ccc1CON=C(C)c1cc(C)cc(C)n1 [compound 15],excellent control performance
14,"COc1cccc(F)c1CON=C(C)c1cc(C)cc(C)n1 [Compound No. 1, 1-(4,6-Dimethyl-2-pyridinyl)ethanone O-[(2-Fluoro-6-methoxyphenyl)methyl]oxime]",excellent control performance
15,"COc1cccc(N(C)C)c1CON=Cc1cc(C)cc(C)n1 [Compound No. 225, 4,6-dimethyl-2-pyridinecarboxyaldehyde O-[(2-methoxy-6-dimethylaminophenyl)methyl] oxime]",excellent control performance
16,COc1cccc(OC)c1CON=Cc1cc(C)cc(C)n1.Cl [compound 236],excellent control performance
17,COc1cccc(OC(C)=O)c1CON=Cc1cc(C)cc(C)n1 [compound 227],excellent control performance
18,COc1ccc(CON=C(C)c2cc(C)cc(C)n2)c(O)c1 [compound 14],excellent control performance
19,COc1cccc(CON=C(C)c2cc(C)cc(C)n2)c1OC(C)=O [compound 207],excellent control performance
20,COc1ccc(O)c(CON=C(C)c2cc(C)cc(C)n2)c1 [Compound No. 21],excellent control performance
21,COc1ccc(C)cc1CON=C(C)c1cc(C)cc(C)n1 [compound 26],excellent control performance
22,CCC(=NOCc1c(OC)cccc1OC)c1cc(C)cc(C)n1 [Compound No. 20],excellent control performance
23,"COc1cccc(C)c1CON=C(C)c1cc(C)cc(C)n1 [Compound No. 7, 1-(4,6-Dimethyl-2-pyridinyl)ethanone O-[(2-Methoxy-6-methylphenyl)methyl] Oxime]",excellent control performance
24,"COc1cccc(CON=C(C)c2cc(C)cc(C)n2)c1O [Compound No. 25, 1-(4,6-Dimethyl-2-pyridinyl)ethanone O-[(2-hydroxy-3-methoxyphenyl)methyl] Oxime]",excellent control performance
25,"COc1cccc(OC)c1CON=Cc1cc(C)cc(C)n1 [Compound No. 196, 4,6-Dimethyl-2-pyridinecarboxyaldehyde O-[(2,6-Dimethoxyphenyl)methyl] Oxime]",excellent control performance
26,COCOc1cccc(OC)c1CON=C(C)c1cc(C)cc(C)n1 [Compound No. 23],excellent control performance

row,SMILES,control performance (control efficacy)
1,COc1cccc(C)c1CON=Cc1cc(C)cc(C)n1 [compound 203],excellent control performance
2,COc1cc(C)cc(OC)c1CON=Cc1cc(C)cc(C)n1 [compound 208],excellent control performance
3,COc1cc(F)cc(OC)c1CON=Cc1cc(C)cc(C)n1 [compound 216],excellent control performance
4,COc1ccc(Cl)c(OC)c1CON=Cc1cc(C)cc(C)n1 [compound 242],excellent control performance
5,COc1c(F)ccc(F)c1CON=C(C)c1cc(C)cc(C)n1 [compound 201],excellent control performance
6,COc1ccc(C)c(OC)c1CON=Cc1cc(C)cc(C)n1 [compound 240],excellent control performance
7,COc1cccc(OC)c1CON=C(C)c1cc(C)cc(C)n1 [compound 195],excellent control performance
8,COc1cccc(F)c1CON=Cc1cc(Cl)cc(C)n1 [compound 220],excellent control performance
9,COc1cc(Cl)cc(OC)c1CON=Cc1cc(C)cc(C)n1 [compound 213],excellent control performance
10,"COc1ccc(CON=C(C)c2cc(C)cc(C)n2)c(OC)c1 [Compound No. 13, 1-(4,6-Dimethyl-2-pyridinyl)ethanone O-[(2,4-Dimethoxyphenyl)methyl] Oxime]",excellent control performance
11,"C#Cc1cccc(OC)c1CON=Cc1cc(C)cc(C)n1 [Compound No. 235, 4,6-Dimethyl-2-pyridinecarboxyaldehyde O-[(2-Methoxy-6-ethynylphenyl)methyl]oxime]",excellent control performance
12,CC(=NOCc1ccc(C)cc1O)c1cc(C)cc(C)n1 [compound 49],excellent control performance
13,COc1cccc(OC)c1C(C)ON=Cc1cc(C)cc(C)n1 (racemic) [compound 239],excellent control performance
14,COc1cccc(OC)c1CON=Cc1ccccn1 [compound 231],excellent control performance
15,COc1cccc(F)c1CON=Cc1cc(C)cc(C)n1 [compound 204],excellent control performance
16,"COc1cccc(N)c1CON=Cc1cc(C)cc(C)n1 [Compound No. 222, 4,6-Dimethyl-2-pyridinecarboxyaldehyde O-[(2-Methoxy-6-aminophenyl)methyl] Oxime]",excellent control performance
17,COc1cc(C)cc(OC)c1CON=C(C)c1cc(C)cc(C)n1 [compound 209],excellent control performance
18,COCOc1cc(C)ccc1CON=C(C)c1cc(C)cc(C)n1 [compound 192],excellent control performance
19,COCOc1c(C)cccc1CON=C(C)c1cc(C)cc(C)n1 [compound 194],excellent control performance
20,CCc1cccc(OC)c1CON=C(C)c1cc(C)cc(C)n1 [compound 27],excellent control performance
21,COc1ccc(F)c(OC)c1CON=Cc1cc(C)cc(C)n1 [compound 48],excellent control performance
22,"COc1cccc(OC)c1CON=C(C)c1cc(Cl)cc(C)n1 [Compound No. 18, 1-(4-Chloro-6-methyl-2-pyridinyl)ethanone O-[(2,6-Dimethoxyphenyl)methyl] Oxime]",excellent control performance
23,COc1cc(F)c(CON=Cc2cc(C)cc(C)n2)c(OC)c1 [compound 224],excellent control performance
24,"COc1cc(OC)c(CON=Cc2cc(C)cc(C)n2)c(OC)c1 [Compound No. 233, 4,6-Dimethyl-2-pyridinecarboxyaldehyde O-[(2,4,6-Trimethoxyphenyl)methyl]oxime]",excellent control performance
25,C=Cc1cccc(OC)c1CON=Cc1cc(C)cc(C)n1 [compound 210],excellent control performance
26,COc1cccc(OC)c1C(C)ON=C(C)c1cc(C)cc(C)n1 (stereo not shown) [compound 11],excellent control performance
